test system: male Hilltop ICR-derived mice; test: Maximal electroshock test in mice; type: in vivo; conditions: Mus musculus, ip, 0.25 h; dosed intraperitoneally in saline 15 minutes prior to transcorneal maximal electroshock (50 milliamps, 0.2 seconds); antagonism of tonic extension; read-out: ED50 (95% confidence limits)
Experimental: This test was performed in the standard manner, essentially as described by Swinyard et al., J. Pharm. Exp. Ther., Vol. 106, pp. 319-330 (1952). Groups of 8-10 male Hilltop ICR-derived mice weighing 20-30 grams were dosed intraperitoneally with a solution or suspension of drug in saline 15 minutes prior to a transcorneal maximal electroshock (50 milli- amps, 0.2 seconds). […] An active compound was capable of antagonizing the occurrence of the tonic extension which occurred immediately after the electroshock.

`CCCCOC(Cn1ccnc1)c1cccc2ccccc12` (stereo not drawn) [1-[2-(1-naphthyl)-2-(n-butoxy)ethyl]imidazole] and `COC(Cn1ccnc1)c1cccc2ccccc12` (stereo not drawn) [1-[2-(1-naphthyl)-2-(methoxy)ethyl]imidazole] are within 1.5-fold of each other in ED50: 16 mg/kg for the first, 19.4 mg/kg for the second.

`CCOC(Cn1ccnc1)c1ccc2ccccc2c1` (stereo not drawn) [1-[2-(2-naphthyl)-2-(ethoxy)ethyl]imidazole] and `COC(Cn1ccnc1)c1ccc2ccccc2c1.Cl` (stereo not drawn) [1-[2-(2-naphthyl)-2-(methoxy)ethyl]imidazole hydrochloride] are within 1.5-fold of each other in ED50: 11.4 mg/kg for the first, 10.4 mg/kg for the second.

Going from `Cc1ccccc1OC(Cn1ccnc1)c1ccc2ccccc2c1` (stereo not drawn) [1-[2-(2-naphthyl)-2-(2-methylphenoxy)ethyl]imidazole] to `c1ccc(OC(Cn2ccnc2)c2ccc3ccccc3c2)cc1` (stereo not drawn) [1-[2-(2-naphthyl)-2-(phenoxy)ethyl]imidazole], the ED50 falls from 32.6 mg/kg to 15.1 mg/kg (2.2-fold).

`CSC(Cn1ccnc1)c1ccc2ccccc2c1` (stereo not drawn) [1-[2-(2-naphthyl)-2-(methylthio)ethyl]imidazole] and `Cl.Clc1ccc(OC(Cn2ccnc2)c2ccc3ccccc3c2)cc1` (stereo not drawn) [1[2-(2-naphthyl)-2-(4-chlorophenoxy)ethyl]imidazole hydrochloride] are within 1.5-fold of each other in ED50: 37.1 mg/kg for the first, 46.3 mg/kg for the second.

test system: not listed separately; test: Acute oral toxicity in mice; conditions: mouse, in vivo; single oral dose by stomach tube, aqueous carboxymethyl cellulose vehicle, observed for three weeks
Experimental: The following example illustrates acute oral toxicity of a representative compound.
Protocol: The test compound, l-[2-(2-naphthyl)-2-(methoxy)ethyl'imidazole hydrochloride, is suspended in an aqueous carboxymethyl cellulose suspending vehicle. Concentrations are adjusted so that doses can be given in volumes of 10 ml./kg. body weight. Groups of mice comprising six Swiss-Webster male mice in each group are used. A single oral dose, by stomach tube, of a final dosage of test compound is administered to the mice in each group. Each group receives a different dosage, one group serving as a control. After administration the mice are observed for a three week period.

`COC(Cn1ccnc1)c1ccc2ccccc2c1.Cl` (stereo not drawn) [1-[2-(2-naphthyl)-2-(methoxy)ethyl]imidazole hydrochloride] gave an LD50 at 504 h of roughly 100 mg/kg.
